Reference: patent publication US20140045746A1 (Merck Sharp & Dohme Corp., priority 2012, published 2014)

Experiments:
hGPR40 [1] = molecular target: T1, hGPR40 (Homo sapiens, UniProt O14842); test: GPR40 Inositol Phosphate Turnover (IP1) Assay; assay type: cell-based; set-up: expressed in transfected cells; host or cells: HEK cells stably expressing the aequorin reporter; settings: HEK cells stably expressing human GPR40; 0% serum; read-out: hGPR40 IP1 EC50 (0% serum)
Experimental: A human GPR40 stable cell-line was generated in HEK cells stably expressing the aequorin expressing reporter.
The assay is performed in 96-well format. HEK cells stably expressing human GPR^40 are plated to be 60-80% confluent within 72 h. After 72 h, the plates are aspirated and the cells washed with inositol-free DMEM (ICN). The wash media is replaced with 150 μL of 3H-inositol labeling media (inositol-free media containing 0.4% human albumin or 0.4% mouse albumin, 1× pen/strep antibiotics, glutamine, 25 mM HEPES to which is added 3H-myo-inositol NEN #NET114A 1mCi/mL, 25 Ci/mmol diluted 1:150 in loading media with a final specific radioactivity of 1 μCi/150 μL). Alternatively, the human and mouse albumin can be added after the overnight labeling step before the addition of LiCl.
The assay is typically run the next day after 18 h labeling. On the day of the assay, 5 μL, of 300 mM LiCl is added to all wells and incubated at 37 degrees for 20 min. 0.75 μL of 200× compounds are added and incubated with the cells for 60 min at 37 degrees. The media is then aspirated off and the assay terminated with the addition of 60 nI, 10 mM formic acid. The cells are lysed for 60 min at room temperature. 15-30 nI, of lysate is mixed with 70 mL/1 mg YSi SPA beads (Amersham) in clear bottom Isoplates. The plates are shaken for 2 h at room temperature. Beads are allowed to settle and the plates are counted in the Wallac Microbeta.

hGPR40 [2] = molecular target: T1, hGPR40; test: GPR40 FLIPR assay (agonist-induced calcium mobilization); assay type: cell-based; set-up: expressed in transfected cells; host or cells: CHO cells stably expressing NFAT BLA (beta-lactamase); settings: GPR40/CHO NFAT BLA cells;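 also: calcium mobilization in the cells read as fluorescence of fluo-4 AM loaded cells on FLIPR after compound addition, cells preloaded with dye 100 min at room temperature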
Experimental: Human and mouse GPR40 stable cell-lines were generated in CHO cells stably expressing NFAT BLA (Beta-lactamase). […] The expression plasmids were transfected using lipofectamine (Life Technologies) following manufacturer's instructions. Stable cell-lines were generated following drug selection.
FLIPR (Fluorimetric Imaging Plate Reader, Molecular Devices) assays were performed to measure agonist-induced calcium mobilization of the stable clones. For the FLIPR assay, one day before assay, GPR40/CHO NFAT BLA cells were seeded into black-wall-clear-bottom 384-well plates (Costar) at 1.4×10e4 cells/20 μL medium/well. The cells were incubated with 20 μl/well of the assay buffer (HBSS, 0.1% BSA, 20 mM HEPES, 2.5 mM probenecid, pH 7.4) containing 8 μM fluo-4, AM, 0.08% pluronic acid at room temperature for 100 minutes. Fluorescence output was measured using FLIPR. Compounds were dissolved in DMSO and diluted to desired concentrations with assay buffer. 13.3 μL/well of compound solution was added.

T1 sequence (O14842 whole entry): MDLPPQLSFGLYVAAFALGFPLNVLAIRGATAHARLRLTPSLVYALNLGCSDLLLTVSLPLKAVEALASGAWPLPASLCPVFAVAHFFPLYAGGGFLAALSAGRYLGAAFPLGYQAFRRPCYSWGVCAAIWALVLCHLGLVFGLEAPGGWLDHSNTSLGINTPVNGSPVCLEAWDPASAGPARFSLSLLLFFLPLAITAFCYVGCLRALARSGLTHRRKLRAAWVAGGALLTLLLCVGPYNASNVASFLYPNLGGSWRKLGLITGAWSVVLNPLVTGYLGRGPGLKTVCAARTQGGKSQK

Row | SMILES | EC50 (hGPR40 [1]) | EC50 (hGPR40 [2])
1 | Cc1cc(CCCCS(C)(=O)=O)cc(C)c1-c1ccc(F)c(COc2cc3c(cn2)[C@H]2[C@@H](C3)[C@@H]2C(=O)O)c1 [Compound 19-16, (5aR,6S,6aS)-3-((4-fluoro-2′,6′-dimethyl-4′-(4-(methylsulfonyl)butyl)-[1,1′-biphenyl]-3-yl)methoxy)-5,5a,6,6a-tetrahydrocyclopropa[4,5]cyclopenta[1,2-c]pyridine-6-carboxylic acid] | 7.3 nM | 160 nM
2 | Cc1cc(CCCC(C)(C)O)cc(C)c1-c1ccc(F)c(COc2cc3c(cn2)[C@H]2[C@@H](C3)[C@@H]2C(=O)O)c1 [Compound 19-19, (5aR,6S,6aS)-3-((4-fluoro-4′-(4-hydroxy-4-methylpentyl)-2′,6′-dimethyl-[1,1′-biphenyl]-3-yl)methoxy)-5,5a,6,6a-tetrahydrocyclopropa[4,5]cyclopenta[1,2-c]pyridine-6-carboxylic acid] | 5.5 nM | 36 nM
3 | CC(C)(O)CCOc1cc(C(F)(F)F)c(-c2ccc(F)c(COc3cc4c(cn3)C3C(C4)C3C(=O)O)c2)cn1 (stereo not shown) [Compound 20-5, 3-((2-fluoro-5-(6-(3-hydroxy-3-methylbutoxy)-4-(trifluoromethyl)pyridin-3-yl)benzyl)oxy)-5,5a,6,6a-tetrahydrocyclopropa[4,5]cyclopenta[1,2-c]pyridine-6-carboxylic acid] | 15 nM | 76 nM
4 | CC(C)(O)CCOc1cc(C(F)(F)F)c(-c2cccc(COc3cc4c(cn3)[C@H]3[C@@H](C4)[C@@H]3C(=O)O)c2)cn1 [Compound 20-6, (5aR,6S,6aS)-3-((3-(6-(3-hydroxy-3-methylbutoxy)-4-(trifluoromethyl)pyridin-3-yl)benzyl)oxy)-5,5a,6,6a-tetrahydro-cyclopropa[4,5] cyclopenta[1,2-c] pyridine-6-carboxylic acid] | 4.9 nM | 19 nM
5 | Cc1nc(OC2CCC(C(C)(C)O)CC2)ccc1-c1ccc(F)c(COc2cc3c(cn2)[C@H]2[C@@H](C3)[C@@H]2C(=O)O)c1 (stereo partly drawn) [Compound 20-8, (5aR,6S,6aS)-3-((2-fluoro-5-(6-((4-(2-hydroxypropan-2-yl)cyclohexyl)oxy)-2-methyl-pyridin-3-yl)benzyl)oxy)-5,5a, 6,6a-tetrahydro-cyclopropa[4,5] cyclopenta[1,2-c] pyridine-6-carboxylic acid] | 175 nM | 99 nM
6 | CC(C)(O)CCCOc1cc(C(F)(F)F)c(-c2ccc(F)c(COc3cc4c(cn3)[C@H]3[C@@H](C4)[C@@H]3C(=O)O)c2)cn1 [Compound 21-7, 3-((2-fluoro-5-(6-((4-hydroxy-4-methylpentyl)oxy)-4-(trifluoromethyl)pyridin-3-yl)benzyl)oxy)-5,5a,6,6a-tetrahydrocyclopropa[4,5]cyclopenta[1,2-c]pyridine-6-carboxylic acid] | 6.2 nM | 11 nM
7 | CC(C)(O)CCCOc1cc(C(F)(F)F)c(-c2cccc(COc3cc4c(cn3)[C@H]3[C@@H](C4)[C@@H]3C(=O)O)c2)cn1 [Compound 21-8, (5aR,6S,6aS)-3-((3-(6-((4-hydroxy-4-methylpentyl)-oxy)-4-(trifluoromethyl)-pyridin-3-yl)benzyl)oxy)-5,5a,6,6a-tetrahydrocyclo-propa[4,5]cyclopenta [1,2-c]pyridine-6-carboxylic acid] | 6.2 nM | 15 nM
8 | Cc1cccc(C)c1-c1ccc(F)c(COc2cc3c(cn2)[C@H]2[C@@H](C3)[C@@H]2C(=O)O)c1 [Compound 22-2] | 26 nM | 49 nM
9 | O=C(O)C1C2Cc3cc(OCc4cc(-c5ccccc5C(F)(F)F)ccc4F)ncc3C21 (stereo not shown) [Compound 22-3, 3-((4-fluoro-2′-(trifluoromethyl)-[1,1′-biphenyl]-3-yl)methoxy)-5,5a,6,6a-tetrahydrocyclo-propa[4,5]cyclopenta[1,2-c]pyridine-6-carboxylic acid] | 35 nM | 36 nM
10 | O=C(O)C1C2Cc3cc(OCc4cc(-c5ccc(C(F)(F)F)cc5)ccc4F)ncc3C21 (stereo not shown) [Compound 22-4, 3-((4-fluoro-4′-(trifluoromethyl)-[1,1′-biphenyl]-3-yl)methoxy)-5,5a,6,6a-tetrahydrocyclo-propa[4,5]cyclopenta[1,2-c]pyridine-6-carboxylic acid] | 240 nM | 54 nM
11 | O=C(O)C1C2Cc3cc(OCc4cc(-c5cccc(C(F)(F)F)c5)ccc4F)ncc3C21 (stereo not shown) [Compound 22-5, 3-((4-fluoro-3′-(trifluoromethyl)-[1,1′-biphenyl]-3-yl)methoxy)-5,5a,6,6a-tetrahydrocyclo-propa[4,5]cyclopenta[1,2-c]pyridine-6-carboxylic acid] | 310 nM | 47 nM
12 | O=C(O)C1C2Cc3cc(OCc4cc(-c5c(F)cccc5C(F)(F)F)ccc4F)ncc3C21 (stereo not shown) [Compound 22-6, 3-((2′,4-difluoro-6′-(trifluoromethyl)-[1,1′-biphenyl]-3-yl)methoxy)-5,5a,6,6a-tetrahydrocyclo-propa[4,5]cyclopenta[1,2-c]pyridine-6-carboxylic acid] | 100 nM | 87 nM
13 | O=C(O)C1C2Cc3cc(OCc4cc(-c5cc(Cl)cc(C(F)(F)F)c5)ccc4F)ncc3C21 (stereo not shown) [Compound 22-7, 3-((3′-chloro-4-fluoro-5′-(trifluoromethyl)-[1,1′-biphenyl]-3-yl)methoxy)-5,5a,6,6a-tetrahydrocyclo-propa[4,5]cyclopenta[1,2-c]pyridine-6-carboxylic acid] | 400 nM | 67 nM
14 | O=C(O)C1C2Cc3cc(OCc4cc(-c5cccnc5C(F)(F)F)ccc4F)ncc3C21 (stereo not shown) [Compound 22-8, 3-((2-fluoro-5-(2-(trifluoromethyl)pyridin-3-yl)benzyl)oxy)-5,5a,6,6a-tetrahydrocyclopenta[4,5] cyclopenta[1,2-c]pyridine-6-carboxylic acid] | 75 nM | 48 nM
15 | O=C(O)C1C2Cc3cc(OCc4cc(-c5ncccc5C(F)(F)F)ccc4F)ncc3C21 (stereo not shown) [Compound 22-9, 3-((2-fluoro-5-(3-(trifluoromethyl)pyridin-2-yl)benzyl)oxy)-5,5a,6,6a-tetrahydrocyclopropa[4,5] cyclopenta[1,2-c]pyridine-6-carboxylic acid] | 850 nM | 95 nM
16 | Cc1cc(OCCCS(C)(=O)=O)ncc1-c1ccc(F)c(COc2cc3c(cn2)[C@H]2[C@@H](C3)[C@@H]2C(=O)O)c1 [Compound 23-8, 4-{2-Fluoro-5-[6-(3-methanesulfonyl-propoxy)-4-methyl-pyridin-3-yl]-benzyloxy}-1,1a,6,6a-tetrahydro-3-aza-cyclopropa[a]indene-1-carboxylic acid] | 4.8 nM | 26 nM
17 | Cc1nc(OCCCS(C)(=O)=O)ccc1-c1ccc(F)c(COc2cc3c(cn2)[C@H]2[C@@H](C3)[C@@H]2C(=O)O)c1 [Compound 23-10, (5aR,6S,6aS)-3-((2-fluoro-5-(2-methyl-6-(3-(methylsulfonyl)propoxy)pyridin-3-yl)benzyl)oxy)-5,5a,6,6a-tetrahydro-cyclopropa[4,5] cyclopenta[1,2-c] pyridine-6-carboxylic acid] | 15 nM | 46 nM
18 | Cc1cc(OCCCS(C)(=O)=O)nc(C)c1-c1cccc(COc2cc3c(cn2)[C@H]2[C@@H](C3)[C@@H]2C(=O)O)c1 [Compound 23-11, (5aR,6S,6aS)-3-((3-(2,4-dimethyl-6-(3-(methylsulfonyl)propoxy)pyridin-3-yl)benzyl)oxy)-5,5a, 6,6a-tetrahydrocyclo propa[4,5]cyclopenta [1,2-c]pyridine-6-carboxylic acid] | 25 nM | 50 nM
19 | Cc1cc(OCCCS(C)(=O)=O)nc(C)c1-c1ccc(F)c(COc2cc3c(cn2)[C@H]2[C@@H](C3)[C@@H]2C(=O)O)c1 [Compound 23-12, (5aR,6S,6aS)-3-((5-(2,4-dimethyl-6-(3-(methylsulfonyl)propoxy)pyridin-3-yl)-2-fluorobenzyl)oxy)-5,5a,6,6a-tetrahydrocyclopropa [4,5]cyclopenta[1,2-c] pyridine-6-carboxylic acid] | 12 nM | 35 nM
20 | Cc1nc(OCCCS(C)(=O)=O)nc(C)c1-c1ccc(F)c(COc2cc3c(cn2)C2C(C3)C2C(=O)O)c1 (stereo not shown) [Compound 23-13, 3-((5-(4,6-dimethyl-2-(3-(methylsulfonyl)propoxy)pyrimidin-5-yl)-2-fluorobenzyl)-oxy)-5,5a,6,6a-tetrahydrocyclopropa [4,5]cyclopenta[1,2-c]pyridine-6-carboxylic acid] | 110 nM | 77 nM
21 | Cc1nc(OCCCS(C)(=O)=O)sc1-c1ccc(F)c(COc2cc3c(cn2)C2C(C3)C2C(=O)O)c1 (stereo not shown) [Compound 23-14, 3-((2-fluoro-5-(4-methyl-2-(3-(methylsulfonyl)-propoxy)thiazol-5-yl)-benzyl)oxy)-5,5a,6,6a-tetrahydrocyclopropa [4,5]cyclopenta[1,2-c] pyridine-6-carboxylic acid] | 34 nM | 18 nM
22 | Cc1nc(OCCCN2CCCC2=O)ccc1-c1ccc(F)c(COc2cc3c(cn2)C2C(C3)C2C(=O)O)c1 (stereo not shown) [Compound 23-15, 3-((2-fluoro-5-(2-methyl-6-(3-(2-oxopyrrolidin-1-yl)propoxy)pyridin-3-yl)benzyl)oxy)-5,5a,6,6a-tetahydrocyclopropa[4,5] cyclopenta[1,2-c]pyridine-6-carboxylic acid] | 27 nM | 38 nM
23 | CS(=O)(=O)CCCOc1cc(OC(F)F)c(-c2ccc(F)c(COc3cc4c(cn3)[C@H]3[C@@H](C4)[C@@H]3C(=O)O)c2)cn1 [Compound 23-17, (5aR,6S,6aS)-3-((5-(4-(difluoro-methoxy)-6-(3-(methylsulfonyl)propoxy)pyridin-3-yl)-2-fluorobenzyl)-oxy)-5,5a,6,6a-tetrahydrocyclopropa [4,5]cyclopenta[1,2-c] pyridine-6-carboxylic acid] | 82 nM | 58 nM
